The test system of data set [1] is mouse L1210 leukemia cells. The following applies: cited from earlier work.
In data set [2] the target is T1, γ-Glutamylcysteine Synthetase (Rattus norvegicus, UniProt P19468).
T1 construct: Rat kidney γ-Glutamylcysteine synthetase was purified from Sprague Dawley (Taconic Farms) rats; from tissue; host or cells: rat kidney (Sprague Dawley, Taconic Farms)
T1 sequence (P19468 1-637): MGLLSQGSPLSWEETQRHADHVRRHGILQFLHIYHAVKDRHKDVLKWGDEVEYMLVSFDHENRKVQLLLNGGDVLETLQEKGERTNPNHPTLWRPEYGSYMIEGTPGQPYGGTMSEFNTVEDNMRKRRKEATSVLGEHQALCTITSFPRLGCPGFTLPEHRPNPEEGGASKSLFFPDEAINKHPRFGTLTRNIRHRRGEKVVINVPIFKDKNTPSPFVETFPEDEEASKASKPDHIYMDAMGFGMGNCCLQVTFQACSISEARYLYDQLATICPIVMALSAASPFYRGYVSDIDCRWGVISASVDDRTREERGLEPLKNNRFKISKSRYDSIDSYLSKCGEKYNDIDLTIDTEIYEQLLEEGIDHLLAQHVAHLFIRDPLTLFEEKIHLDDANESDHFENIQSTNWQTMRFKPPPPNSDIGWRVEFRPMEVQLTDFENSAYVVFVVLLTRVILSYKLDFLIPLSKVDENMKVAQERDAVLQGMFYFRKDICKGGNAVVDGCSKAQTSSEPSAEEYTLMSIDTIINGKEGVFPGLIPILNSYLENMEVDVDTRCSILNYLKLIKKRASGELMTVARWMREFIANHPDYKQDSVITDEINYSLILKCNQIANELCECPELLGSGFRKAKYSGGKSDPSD
T1 sequence (P48508 1-274 partner): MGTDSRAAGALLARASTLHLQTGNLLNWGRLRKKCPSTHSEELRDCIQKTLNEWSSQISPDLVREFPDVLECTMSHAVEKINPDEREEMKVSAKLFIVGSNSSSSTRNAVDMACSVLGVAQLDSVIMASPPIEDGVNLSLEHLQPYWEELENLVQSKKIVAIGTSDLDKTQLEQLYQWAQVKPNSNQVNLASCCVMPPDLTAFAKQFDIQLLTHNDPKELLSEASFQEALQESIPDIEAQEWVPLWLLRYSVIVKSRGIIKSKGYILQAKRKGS
Nature of the data set: Inhibition of γ-glutamylcysteine synthetase (preincubation assay). The data set is classed as biochemical. The following applies: for Ki: 30 min preincubation, 22° C., read-out: Kiapp, Concentration for 50% Inhibition; for inhibition of γ-glutamylcysteine synthetase (in words): ranking compared with BSO.
Description: Rat kidney γ-Glutamylcysteine synthetase was purified from Sprague Dawley (Taconic Farms) rats (Seelig., Methods in Enzymology, 1985, 113:379-390).
The preincubation assay of γ-glutamylcysteine synthetase is given below. γ-Glutamylcysteine synthetase (4.6 units) was added to a mixture (final volume, 50 μl) containing 100 mM Tris/HCl (pH 8.2), 5 mM ATP, 20 mM MgCl2, 0.2 mM EDTA, and the sulfoximine being evaluated. After incubation at 22° C. for 30 minutes, a 45 μl aliquot of the preincubation mixture was added to the assay as follows.
γ-Glutamylcysteine synthetase was assayed as follows (Griffith et al, J. Biological Chem., 1979, 254:1205-1210). The reaction mixture (final volume, 1.0 ml) contained 100 mM Tris/HCl (pH 8.2), 120 mM KCl, 5 mM phosphoenolpyruvate, 20 mM MgCl2, 10 mM sodium L-glutamate, 10 mM L-α-aminobutyric acid, 0.2 mM EDTA, 0.4 mM NADH, pyruvate kinase (10 IU), and lactate dehydrogenase (10 IU). The reaction (37° C.) was initiated by the addition of γ-glutamylcysteine synthetase and the oxidation of NADH, equivalent to ADP formation, was recorded at 340 nm.

Data set [3] has as its system glutathione. Nature of the data set: Tissue glutathione levels after intraperitoneal administration of sulfoximines. The data set is classed as in vivo, mouse. The following applies: for % Decrease in glutathione / Glutathione level: 2 mmol/Kg i.p.
Description: Male mice (Swiss Webster) were fasted overnight (about 16 hr). L-3-methylbuthionine-SR-sulfoximine (3 mBSO; L-S-3-methylbutyl homocysteine-SR-sulfoximine; L-S-isopentyl homocysteine-SR-sulfoximine), L-buthionine-SR-sulfoximine(BSO; L-S-butyl homocysteine-SR-sulfoximine), L-2-methylbuthiomine-SR-sulfoximine (2 mBSO, L-S-2methylbutyl homocysteine-SR-sulfoximine), or saline (0.9% NaCl) were administered to mice at 2 mmol/Kg intraperitoneally (50 mM, Ph ^~ 7). At the times indicated, plasma and tissues were obtained and assayed for glutathione (GSH+1/2 GSSG) as described by Anderson, Methods in Enzymology, 1985, 113:548-555.
Data set [4] has as its system glutathione. Description: Tissue glutathione after oral administration of sulfoximines (Table 5). The data set is classed as in vivo, mouse. The following applies: 2 mmol/kg. The method, then: Male mice (Swiss Webster) were fasted overnight (about 16 hr.) L-buthionine-SR-sulfoximine (BSO, S-n-butyl homocysteine-SR-sulfoximine), L-S-cyclohexylmethyl homocysteine-SR-sulfoximine (CHMSO); L-S-2-ethylbutylhomocysteine-SR-sulfoximine (2 EtBSO, L-S-2-ethylbutyl homocysteine-SR-sulfoximine, or saline (0.9% NaCl) were administered to mice at 2 mmol/Kg by intubation (100 mM; pH about 1 with HCl (200 mM). At the times indicated, plasma and tissues were obtained and assayed for glutathione (GSH+1/2 GSSG) as described by Anderson, Methods in Enzymology, 1985, 113:548-555. (See Table 4 and 5.)

A short description of data set [5]: Detection of compound in mouse bile. Type of data set: in vivo.

Structures are written as SMILES.

Regarding `N[C@@H](Cc1ccc(N(CCCl)CCCl)cc1)C(=O)O` [phenylalanine mustard], the “dose needed to kill the most resistant cells versus most sensitive cell lines” value in data set [1] is “substantially higher”. Besides, the “conversion of phenylalanine mustard by resistant cells” value in data set [1] (glutathione-dependent dehydrochlorination) is on record as “converted phenylalanine mustard to a non-toxic hydroxy derivative”.
For `CC(C)CCS(=N)(=O)CC[C@H](N)C(=O)O` (stereo partly drawn) [3m BSO, L-S-3-methylbutyl homocysteine-SR-sulfoximine], the Ki in data set [2] was 0.6 µM. The “inhibition of γ-glutamylcysteine synthetase (in words)” value in data set [2] is recorded as “best inhibitors, about equal to BSO”. Besides, the “% Decrease in glutathione” value in data set [3] (brain, 2 hr) was 10%; in data set [3] (brain, 12 hr), 10%; in data set [3] (heart, 2 hr), 16%; in data set [3] (heart, 12 hr), 57%; in data set [3] (kidney, 2 hr), 81%; in data set [3] (kidney, 12 hr), 53%. For the same compound, the “% Decrease in glutathione” value in data set [3] (liver, 2 hr) is given as 77%; in data set [3] (liver, 12 hr) it was 22%; in data set [3] (plasma, 2 hr), 64%; in data set [3] (plasma, 12 hr), 30%. Also, the Glutathione level amounted to 2.09 µmol/g in data set [3] (brain, 2 hr); 1.92 µmol/g in data set [3] (brain, 12 hr); 1.13 µmol/g in data set [3] (heart, 2 hr); 0.55 µmol/g in data set [3] (heart, 12 hr); 0.73 µmol/g in data set [3] (kidney, 2 hr); 1.69 µmol/g in data set [3] (kidney, 12 hr). Also, the Glutathione level in data set [3] (liver, 2 hr) was 1.26 µmol/g; in data set [3] (liver, 12 hr), 3.86 µmol/g; in data set [3] (plasma, 2 hr) it was 10.6 µM; in data set [3] (plasma, 12 hr) it was 19.2 µM. Further, in data set [3] (liver, after 2 hr), the “depletion of liver glutathione compared with BSO” value is “more effective than BSO”.
As for `CCC(C)CS(=N)(=O)CC[C@H](N)C(=O)O` (stereo partly drawn) [2m BSO, L-S-2methylbutyl homocysteine-SR-sulfoximine], the Ki in data set [2] turned out to be 18.4 µM. Besides, the “% Decrease in glutathione” value in data set [3] (brain, 2 hr) was determined as 5%; in data set [3] (brain, 12 hr) it was 0%; in data set [3] (heart, 2 hr), 14%; in data set [3] (heart, 12 hr), 8%; in data set [3] (kidney, 2 hr) it was 25%; in data set [3] (kidney, 12 hr), 0%. Further, the “% Decrease in glutathione” value in data set [3] (liver, 2 hr) was found to be 18%; in data set [3] (liver, 12 hr) it was 0%; in data set [3] (plasma, 2 hr), 15%; in data set [3] (plasma, 12 hr), 8%. The Glutathione level stood at 2.19 µmol/g in data set [3] (brain, 2 hr); 2.18 µmol/g in data set [3] (brain, 12 hr); 1.15 µmol/g in data set [3] (heart, 2 hr); 1.19 µmol/g in data set [3] (heart, 12 hr); 2.08 µmol/g in data set [3] (kidney, 2 hr); 4.10 µmol/g in data set [3] (kidney, 12 hr). Besides, the Glutathione level in data set [3] (liver, 2 hr) was determined as 4.49 µmol/g; in data set [3] (liver, 12 hr) it was 5.05 µmol/g; in data set [3] (plasma, 2 hr), 25.2 µM; in data set [3] (plasma, 12 hr), 26.3 µM.
For `CCC(CC)CS(=N)(=O)CC[C@H](N)C(=O)O` (stereo partly drawn) [2ETBSO, L-S-2-ethylbutyl homocysteine-SR-sulfoximine], in data set [2], the Ki came to 43.3 µM.
For the compound `N=S(=O)(CC[C@H](N)C(=O)O)CC1CCCCC1` (stereo partly drawn) [CHMSO, L-S-cyclohexylmethyl homocysteine-SR-sulfoximine], in data set [2], the Ki is 3.8 µM and the “inhibition of γ-glutamylcysteine synthetase (in words)” value is listed as “best inhibitors, about equal to BSO”. Also, in data set [4] (12 hours, experimental error about 5%), the “decrease in brain glutathione levels” value is recorded as “no decrease”. For the same compound, the “decrease in glutathione levels (cardio-toxicity)” value in data set [4] (2 hours, mice) came out at 8%. In addition, the “detection in mouse bile” value in data set [5] was “CHMSO was detected”.

Source of the values: US5476966A, “Method for depletion of glutathione” (Cornell Research Foundation, Inc., priority 1995, dated 1995).
